How the values were obtained:
ROS1 = ROS1 (Homo sapiens (Human), UniProt P08922); assay: Radio-tagged HotSpot kinase assay, ROS1; assay type: biochemical
Experimental: (§1) Inhibition of protein kinase activity by compounds was carried out on the Radio-tagged HotSpot kinase experimental platform of Reaction Biology Corporation. Fresh reaction solution (20 mM TIEPESpH 7.5, 10 mM MgCl2, 1 mM EGTA, 0.02% Brij35, 0.02 mg/ml BSA, 0.1 mM Na3VO4, 2 mM DTT, […]) containing corresponding substrates was prepared, cofactor and kinase to be tested were added into the above solution and mixed gently. Echo550 pipetting system was used to add the test compound DMSO solution to each well (the blank control group was added with the corresponding volume of DMSO), then 33P-ATP (with a final specific activity of 0.01 μCi/μL) was added to start the reaction. The reaction solution was incubated at room temperature for 120 minutes. Transferred the incubated reaction solution to P81 ion exchange chromatographic paper (Whatman #3698-915), eluted with […] phosphoric acid solution, and the amount of radioactive phosphorylated substrate remaining on the chromatographic paper was detected.

ROS1 (G2032R) = ROS1 (G2032R) (Homo sapiens (Human), UniProt P08922, G2032R); assay: Radio-tagged HotSpot kinase assay, ROS1 (G2032R); assay type: biochemical
Chain of ROS1 (G2032R) (P08922 28-2347 G2032R): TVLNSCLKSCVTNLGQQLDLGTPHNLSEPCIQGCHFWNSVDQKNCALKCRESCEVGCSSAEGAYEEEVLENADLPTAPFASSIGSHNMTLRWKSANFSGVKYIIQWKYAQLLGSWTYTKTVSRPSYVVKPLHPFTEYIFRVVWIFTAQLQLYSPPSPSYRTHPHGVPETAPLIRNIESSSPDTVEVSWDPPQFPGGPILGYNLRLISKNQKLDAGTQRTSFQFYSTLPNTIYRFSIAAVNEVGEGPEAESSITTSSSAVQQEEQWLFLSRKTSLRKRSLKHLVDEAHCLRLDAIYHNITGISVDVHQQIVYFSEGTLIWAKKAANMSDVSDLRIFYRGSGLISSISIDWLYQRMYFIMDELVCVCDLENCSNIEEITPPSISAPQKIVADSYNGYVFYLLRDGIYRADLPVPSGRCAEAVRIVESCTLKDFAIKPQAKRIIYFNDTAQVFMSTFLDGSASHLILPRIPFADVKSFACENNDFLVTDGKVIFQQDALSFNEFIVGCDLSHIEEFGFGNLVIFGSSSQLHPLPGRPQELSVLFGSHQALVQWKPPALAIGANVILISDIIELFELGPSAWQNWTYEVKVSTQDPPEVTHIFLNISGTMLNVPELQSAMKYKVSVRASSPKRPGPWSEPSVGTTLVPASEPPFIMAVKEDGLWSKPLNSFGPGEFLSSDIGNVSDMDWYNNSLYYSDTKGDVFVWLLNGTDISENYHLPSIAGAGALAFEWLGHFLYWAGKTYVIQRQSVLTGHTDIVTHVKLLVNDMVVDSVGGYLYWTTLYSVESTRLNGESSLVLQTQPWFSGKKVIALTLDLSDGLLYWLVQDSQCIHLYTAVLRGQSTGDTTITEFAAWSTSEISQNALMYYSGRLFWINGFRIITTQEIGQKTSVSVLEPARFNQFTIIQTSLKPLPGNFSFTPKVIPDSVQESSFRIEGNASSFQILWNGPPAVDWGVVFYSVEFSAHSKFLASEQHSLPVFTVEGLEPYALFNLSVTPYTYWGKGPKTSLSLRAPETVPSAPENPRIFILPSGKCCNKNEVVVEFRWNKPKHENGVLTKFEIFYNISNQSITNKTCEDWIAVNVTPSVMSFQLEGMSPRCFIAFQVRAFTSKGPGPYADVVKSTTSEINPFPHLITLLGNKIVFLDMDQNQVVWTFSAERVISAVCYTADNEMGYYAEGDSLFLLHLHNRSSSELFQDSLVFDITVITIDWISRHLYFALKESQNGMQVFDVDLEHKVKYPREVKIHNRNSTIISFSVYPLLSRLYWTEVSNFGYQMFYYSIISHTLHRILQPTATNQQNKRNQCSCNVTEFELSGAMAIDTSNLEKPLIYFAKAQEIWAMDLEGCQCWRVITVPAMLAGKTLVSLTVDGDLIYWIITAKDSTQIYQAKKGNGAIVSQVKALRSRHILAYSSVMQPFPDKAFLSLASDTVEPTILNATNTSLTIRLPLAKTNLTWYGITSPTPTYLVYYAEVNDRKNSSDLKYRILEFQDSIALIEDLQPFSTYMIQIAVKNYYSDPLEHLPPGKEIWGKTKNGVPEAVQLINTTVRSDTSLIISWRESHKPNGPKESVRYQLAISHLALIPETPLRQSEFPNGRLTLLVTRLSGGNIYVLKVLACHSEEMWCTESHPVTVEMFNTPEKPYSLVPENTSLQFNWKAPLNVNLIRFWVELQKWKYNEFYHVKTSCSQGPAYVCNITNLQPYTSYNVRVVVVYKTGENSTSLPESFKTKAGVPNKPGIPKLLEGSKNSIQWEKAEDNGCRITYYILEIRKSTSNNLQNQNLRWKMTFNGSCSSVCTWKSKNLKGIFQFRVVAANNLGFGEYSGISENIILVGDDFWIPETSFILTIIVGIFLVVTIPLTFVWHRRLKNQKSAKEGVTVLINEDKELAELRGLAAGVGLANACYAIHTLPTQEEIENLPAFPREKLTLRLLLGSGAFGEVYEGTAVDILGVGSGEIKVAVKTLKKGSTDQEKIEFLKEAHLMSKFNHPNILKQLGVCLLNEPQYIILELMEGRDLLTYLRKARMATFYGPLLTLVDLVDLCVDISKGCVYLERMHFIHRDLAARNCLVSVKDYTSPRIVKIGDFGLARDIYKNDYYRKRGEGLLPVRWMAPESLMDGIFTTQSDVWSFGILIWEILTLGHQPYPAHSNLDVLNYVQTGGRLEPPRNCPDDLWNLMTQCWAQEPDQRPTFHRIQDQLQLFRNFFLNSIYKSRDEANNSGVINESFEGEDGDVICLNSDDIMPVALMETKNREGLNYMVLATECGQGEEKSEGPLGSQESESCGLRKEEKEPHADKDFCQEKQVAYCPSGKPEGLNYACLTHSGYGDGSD
Experimental: as §1

TRKA = TRKA (Homo sapiens (Human), UniProt P04629); assay: Radio-tagged HotSpot kinase assay, TRKA; assay type: biochemical
Chain of TRKA (P04629 33-796): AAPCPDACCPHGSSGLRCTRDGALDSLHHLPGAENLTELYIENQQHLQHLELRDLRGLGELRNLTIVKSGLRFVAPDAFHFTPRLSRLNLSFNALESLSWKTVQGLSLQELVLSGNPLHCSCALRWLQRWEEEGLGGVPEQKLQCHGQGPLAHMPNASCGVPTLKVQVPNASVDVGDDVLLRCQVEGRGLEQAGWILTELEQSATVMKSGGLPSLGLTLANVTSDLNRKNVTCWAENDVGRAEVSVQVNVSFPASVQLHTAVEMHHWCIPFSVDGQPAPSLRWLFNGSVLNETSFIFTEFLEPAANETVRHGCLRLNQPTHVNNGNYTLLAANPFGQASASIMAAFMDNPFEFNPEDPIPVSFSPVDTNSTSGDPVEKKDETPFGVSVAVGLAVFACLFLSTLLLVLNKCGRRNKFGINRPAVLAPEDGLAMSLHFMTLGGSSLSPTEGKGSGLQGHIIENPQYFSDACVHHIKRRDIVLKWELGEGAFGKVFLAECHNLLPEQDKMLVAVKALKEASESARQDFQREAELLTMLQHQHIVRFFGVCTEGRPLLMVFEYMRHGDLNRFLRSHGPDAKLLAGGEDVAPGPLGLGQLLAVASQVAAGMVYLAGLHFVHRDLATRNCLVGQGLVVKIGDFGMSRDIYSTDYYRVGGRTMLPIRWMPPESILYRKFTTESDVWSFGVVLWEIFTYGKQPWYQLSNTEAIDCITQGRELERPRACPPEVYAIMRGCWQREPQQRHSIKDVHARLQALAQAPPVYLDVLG
Experimental: as §1

TRKA (G677C) = TRKA (G677C) (Homo sapiens, UniProt P04629, G667C); assay: Radio-tagged HotSpot kinase assay, TRKA (G677C); assay type: biochemical; settings: read-out: TRKA (G677C) (IC50/nM)
Chain of TRKA (G677C) (P04629 33-796 G667C limits assumed): as the sequence (P04629 33-796) above, with G635C counted along it
Experimental: as §1

ALK = ALK (Homo sapiens (Human), UniProt Q9UM73); assay: Radio-tagged HotSpot kinase assay, ALK; assay type: biochemical
Chain of ALK (Q9UM73 19-1620): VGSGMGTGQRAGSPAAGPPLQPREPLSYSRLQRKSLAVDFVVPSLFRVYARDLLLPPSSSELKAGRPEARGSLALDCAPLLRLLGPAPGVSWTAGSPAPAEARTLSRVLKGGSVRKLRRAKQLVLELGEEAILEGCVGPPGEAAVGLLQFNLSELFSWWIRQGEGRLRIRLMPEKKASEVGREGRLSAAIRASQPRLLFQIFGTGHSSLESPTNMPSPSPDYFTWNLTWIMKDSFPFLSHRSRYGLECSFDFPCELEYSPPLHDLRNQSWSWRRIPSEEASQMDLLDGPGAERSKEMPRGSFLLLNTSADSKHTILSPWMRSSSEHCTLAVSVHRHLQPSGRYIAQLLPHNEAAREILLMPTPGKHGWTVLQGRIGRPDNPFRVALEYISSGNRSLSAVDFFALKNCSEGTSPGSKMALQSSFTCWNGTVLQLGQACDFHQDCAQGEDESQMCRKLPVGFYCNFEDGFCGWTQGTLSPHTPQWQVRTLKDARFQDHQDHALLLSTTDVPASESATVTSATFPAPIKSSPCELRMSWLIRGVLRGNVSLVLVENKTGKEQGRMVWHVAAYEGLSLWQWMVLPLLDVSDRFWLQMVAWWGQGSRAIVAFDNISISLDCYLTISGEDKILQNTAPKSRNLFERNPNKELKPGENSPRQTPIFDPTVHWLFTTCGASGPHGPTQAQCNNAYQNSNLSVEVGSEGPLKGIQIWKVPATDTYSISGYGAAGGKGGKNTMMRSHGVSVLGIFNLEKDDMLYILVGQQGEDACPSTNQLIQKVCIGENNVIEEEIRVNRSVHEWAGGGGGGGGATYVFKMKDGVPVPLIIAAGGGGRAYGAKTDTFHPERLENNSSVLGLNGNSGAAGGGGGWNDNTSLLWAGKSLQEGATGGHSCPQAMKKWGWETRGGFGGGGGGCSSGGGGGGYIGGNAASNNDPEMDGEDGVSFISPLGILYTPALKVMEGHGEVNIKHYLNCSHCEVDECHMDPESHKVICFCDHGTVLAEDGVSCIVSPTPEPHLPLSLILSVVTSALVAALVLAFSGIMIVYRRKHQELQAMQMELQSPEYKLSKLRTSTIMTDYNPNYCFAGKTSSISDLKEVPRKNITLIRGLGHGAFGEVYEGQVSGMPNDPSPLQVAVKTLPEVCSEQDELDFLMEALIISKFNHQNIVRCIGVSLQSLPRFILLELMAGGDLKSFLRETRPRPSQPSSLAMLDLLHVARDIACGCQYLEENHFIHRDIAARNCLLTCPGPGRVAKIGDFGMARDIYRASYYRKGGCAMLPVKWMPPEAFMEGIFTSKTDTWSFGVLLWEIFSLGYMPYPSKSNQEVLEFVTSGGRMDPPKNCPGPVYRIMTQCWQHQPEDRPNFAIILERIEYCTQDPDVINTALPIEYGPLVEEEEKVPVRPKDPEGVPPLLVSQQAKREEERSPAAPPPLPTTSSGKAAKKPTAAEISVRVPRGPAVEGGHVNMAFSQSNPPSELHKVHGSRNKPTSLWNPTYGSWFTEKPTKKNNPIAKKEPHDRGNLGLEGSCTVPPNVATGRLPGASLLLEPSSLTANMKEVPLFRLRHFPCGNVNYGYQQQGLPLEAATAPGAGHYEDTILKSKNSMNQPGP
Experimental: as §1

ALK (G1202R) = ALK (G1202R) (Homo sapiens (Human), UniProt Q9UM73, G1202R); assay: Radio-tagged HotSpot kinase assay, ALK (G1202R); assay type: biochemical
Chain of ALK (G1202R) (Q9UM73 19-1620 G1202R): as the sequence (Q9UM73 19-1620) above, with G1184R counted along it
Experimental: as §1

Ba/F3-CD74-ROS1-G2032R = assay: Inhibition of cell proliferation (CellTiter-Glo), Ba/F3-CD74-ROS1-G2032R; assay type: cell-based; settings: 72 hours
Experimental: (§2) The experiment of inhibiting cell proliferation by compounds was carried out in Hefei Zhongkeprecedo Biomedical Technology Co., Ltd. The Ba/F3 engineered cell line stably transfected with different kinase genes was recovered with RPMI 1640 medium (Biological Industries, Israel)+10% fetal bovine serum (Biological Industries, Israel)+1% double antibody (Penicillin Streptomycin solution, Coring, USA) and cultivated two generations. The logarithmic growth phase cell suspension was taken, and 2000 cells/well were inoculated on 96-well white cell culture plate (Corning 3917, NY, USA) with a volume of 95 μL per well. 5 μL of 20×DMSO solution of the compound to be tested was added into the culture plate containing 95 μL of cell suspension. The blank control group was added with corresponding volume of DMSO, mixed well, and incubated in a 5% CO2 incubator at 37° C. for 72 hours. CellTiter-Glo was used to detect cell viability.

Ba/F3-LMNA-NTRK1-G595R = assay: Inhibition of cell proliferation (CellTiter-Glo), Ba/F3-LMNA-NTRK1-G595R; assay type: cell-based; settings: 72 hours
Experimental: as §2

Chain of ROS1 (P08922 28-2347): as the sequence (P08922 28-2347 G2032R) above, with R2005G counted along it

**Q.** Which IC50 (ROS1) does the source give for `C[C@@H](Nc1ccn2ncc(C3=NOCCN3)c2n1)c1cc(F)ccc1C(F)(F)F` [Example 27] here?
**A.** 0.5 to 5 nM

**Q.** And the IC50 (ROS1 (G2032R))?
**A.** 50 to 500 nM

**Q.** What about the IC50 (TRKA) of the same compound?
**A.** 0.5 to 5 nM

**Q.** What about the IC50 (TRKA (G677C)) of the same compound?
**A.** 50 to 500 nM

**Q.** What about the IC50 (ALK) of the same compound?
**A.** 5 to 50 nM

**Q.** And the IC50 (ALK (G1202R))?
**A.** 50 to 500 nM

**Q.** With `C[C@@H](Nc1ccn2ncc(NC3=NCC(C)(C)N3)c2n1)c1cc(F)cc(F)c1F` [Example 17] as the compound, how does the IC50 (ROS1) read?
**A.** 0.5 to 5 nM

**Q.** What about the IC50 (ROS1 (G2032R)) of the same compound?
**A.** 5 to 50 nM

**Q.** And the IC50 (TRKA)?
**A.** 0.5 to 5 nM

**Q.** What about the IC50 (TRKA (G677C)) of the same compound?
**A.** 5 to 50 nM

**Q.** And the IC50 (ALK)?
**A.** 50 to 500 nM

**Q.** And the IC50 (ALK (G1202R))?
**A.** 50 to 500 nM

**Q.** `C[C@@H](Nc1ccn2ncc(C3=NOCCN3)c2n1)c1cc(F)ccc1C(F)F` [Example 28] was tested. Which IC50 (ROS1) did it give?
**A.** 0.5 to 5 nM

**Q.** And the IC50 (ROS1 (G2032R))?
**A.** 50 to 500 nM

**Q.** And the IC50 (TRKA)?
**A.** 0.5 to 5 nM

**Q.** And the IC50 (TRKA (G677C))?
**A.** 50 to 500 nM

**Q.** And the IC50 (ALK)?
**A.** 5 to 50 nM

**Q.** What about the IC50 (ALK (G1202R)) of the same compound?
**A.** 50 to 500 nM

**Q.** What does the source list for `C[C@@H](Nc1ccn2ncc(C3=NOCC(C)(C)N3)c2n1)c1cc(F)ccc1OC(F)F` [Example 16]?
**A.** IC50 (ROS1): 0.5 to 5 nM; IC50 (ROS1 (G2032R)): 5 to 50 nM; IC50 (TRKA): 0.5 to 5 nM; IC50 (TRKA (G677C)): 5 to 50 nM; IC50 (ALK): 5 to 50 nM; IC50 (ALK (G1202R)): 50 to 500 nM

**Q.** Which results are given for `COc1ncc(F)cc1[C@@H](C)Nc1ccn2ncc(C3=NC(=O)C(C)(C)N3)c2n1` [Example 10]?
**A.** IC50 (ROS1): < 0.5 nM; IC50 (ROS1 (G2032R)): < 0.5 nM; IC50 (TRKA): < 0.5 nM; IC50 (TRKA (G677C)): < 0.5 nM; IC50 (ALK): 0.5 to 5 nM; IC50 (ALK (G1202R)): 5 to 50 nM

**Q.** Which IC50 (ROS1) does the source give for `COc1ccc(F)cc1[C@@H](C)Nc1ccn2ncc(OC3=NC(C)(C)CN3)c2n1` [Example 14] here?
**A.** 0.5 to 5 nM

**Q.** And the IC50 (ROS1 (G2032R))?
**A.** 5 to 50 nM

**Q.** And the IC50 (TRKA)?
**A.** 0.5 to 5 nM

**Q.** And the IC50 (TRKA (G677C))?
**A.** 5 to 50 nM

**Q.** What about the IC50 (ALK) of the same compound?
**A.** 50 to 500 nM

**Q.** What about the IC50 (ALK (G1202R)) of the same compound?
**A.** 50 to 500 nM

**Q.** Which IC50 (ROS1) does the source give for `C[C@@H](Nc1ccn2ncc(C3=NC(=O)C(C)(C)N3)c2n1)c1cc(F)ccc1OC(F)(F)F` [Example 21] here?
**A.** < 0.5 nM

**Q.** What about the IC50 (ROS1 (G2032R)) of the same compound?
**A.** 0.5 to 5 nM

**Q.** What about the IC50 (TRKA) of the same compound?
**A.** < 0.5 nM

**Q.** What about the IC50 (TRKA (G677C)) of the same compound?
**A.** 0.5 to 5 nM

**Q.** And the IC50 (ALK)?
**A.** 0.5 to 5 nM

**Q.** And the IC50 (ALK (G1202R))?
**A.** 5 to 50 nM

**Q.** Which results are given for `C[C@@H](Nc1ccn2ncc(C3=NOCCN3)c2n1)c1cc(F)cc(F)c1F` [Example 3]?
**A.** IC50 (ROS1): < 0.5 nM; IC50 (ROS1 (G2032R)): < 0.5 nM; IC50 (TRKA): < 0.5 nM; IC50 (TRKA (G677C)): < 0.5 nM; IC50 (ALK): 0.5 to 5 nM; IC50 (ALK (G1202R)): 0.5 to 5 nM

**Q.** For `CONC(=O)c1cnn2ccc(N[C@H](C)c3cc(F)cc(F)c3F)nc12` [Example 24], which IC50 (ROS1) is on record?
**A.** 5 to 50 nM

**Q.** And the IC50 (ROS1 (G2032R))?
**A.** 50 to 500 nM

**Q.** What about the IC50 (TRKA) of the same compound?
**A.** 5 to 50 nM

**Q.** What about the IC50 (TRKA (G677C)) of the same compound?
**A.** 50 to 500 nM

**Q.** What about the IC50 (ALK) of the same compound?
**A.** 5 to 50 nM

**Q.** What about the IC50 (ALK (G1202R)) of the same compound?
**A.** 50 to 500 nM

**Q.** For `COc1c(F)cc(F)cc1[C@@H](C)Nc1ccn2ncc(NC3=NC(C)(C)CO3)c2n1` [Example 18], which IC50 (ROS1) is on record?
**A.** 0.5 to 5 nM

**Q.** And the IC50 (ROS1 (G2032R))?
**A.** 5 to 50 nM

**Q.** What about the IC50 (TRKA) of the same compound?
**A.** 0.5 to 5 nM

**Q.** What about the IC50 (TRKA (G677C)) of the same compound?
**A.** 5 to 50 nM

**Q.** What about the IC50 (ALK) of the same compound?
**A.** 5 to 50 nM

**Q.** What about the IC50 (ALK (G1202R)) of the same compound?
**A.** 50 to 500 nM

**Q.** `C[C@@H](Nc1ccn2ncc(NC3=NC(C)(C)CO3)c2n1)c1cc(F)cc(F)c1F` [Example 2] was tested. Which IC50 (ROS1) did it give?
**A.** 0.5 to 5 nM

**Q.** And the IC50 (ROS1 (G2032R))?
**A.** 0.5 to 5 nM

**Q.** What about the IC50 (TRKA) of the same compound?
**A.** 0.5 to 5 nM

**Q.** What about the IC50 (TRKA (G677C)) of the same compound?
**A.** 0.5 to 5 nM

**Q.** And the IC50 (ALK)?
**A.** 0.5 to 5 nM

**Q.** What about the IC50 (ALK (G1202R)) of the same compound?
**A.** 5 to 50 nM

**Q.** Which IC50 (ROS1) does the source give for `C[C@@H](Nc1ccn2ncc(C(=O)NOCCO)c2n1)c1cc(F)cc(F)c1F` [Example 13] here?
**A.** 5 to 50 nM

**Q.** And the IC50 (ROS1 (G2032R))?
**A.** 50 to 500 nM

**Q.** What about the IC50 (TRKA) of the same compound?
**A.** 5 to 50 nM

**Q.** And the IC50 (TRKA (G677C))?
**A.** 50 to 500 nM

**Q.** And the IC50 (ALK)?
**A.** 50 to 500 nM

**Q.** And the IC50 (ALK (G1202R))?
**A.** 50 to 500 nM

**Q.** For `C[C@@H](Nc1ccn2ncc(C3=NC(=O)C(C)(C)N3)c2n1)c1cc(F)cnc1OC(F)(F)F` [Example 25], which IC50 (ROS1) is on record?
**A.** < 0.5 nM

**Q.** What about the IC50 (ROS1 (G2032R)) of the same compound?
**A.** 0.5 to 5 nM

**Q.** And the IC50 (TRKA)?
**A.** < 0.5 nM

**Q.** And the IC50 (TRKA (G677C))?
**A.** 0.5 to 5 nM

**Q.** And the IC50 (ALK)?
**A.** 0.5 to 5 nM

**Q.** And the IC50 (ALK (G1202R))?
**A.** 5 to 50 nM

**Q.** What does the source list for `COc1ccc(F)cc1[C@@H](C)Nc1ccn2ncc(C3=NC(=O)C(C)(C)N3)c2n1` [Example 7]?
**A.** IC50 (ROS1): < 0.5 nM; IC50 (ROS1 (G2032R)): < 0.5 nM; IC50 (TRKA): < 0.5 nM; IC50 (TRKA (G677C)): < 0.5 nM; IC50 (ALK): 0.5 to 5 nM; IC50 (ALK (G1202R)): 5 to 50 nM; IC50 (Ba/F3-CD74-ROS1-G2032R): 54.6 nM; IC50 (Ba/F3-LMNA-NTRK1-G595R): 36.1 nM

From patent US20240025908A1, “COMPOUND USED AS KINASE INHIBITOR AND USE THEREOF” (TYK MEDICINES, INC., priority 2020, published 2024)
